Experimental data as given in BigSolDB 2.1.

O=C(NC[C@H]1CN(c2ccc(N3CCOCC3=O)cc2)C(=O)O1)c1ccc(Cl)s1
solubility (mole fraction)
Details | in 1,4-dioxane | in 2-butanone | in 2-hexanone | in 3-pentanone | in acetone | in acetonitrile | in methyl acetate
273.15 K | – | 3.47e-05 | 1.78e-05 | 2.43e-05 | 4.06e-05 | 4.82e-05 | 3.2e-05
278.15 K | – | 4.55e-05 | 2.24e-05 | 3.11e-05 | 5.29e-05 | 6.11e-05 | 4.05e-05
283.15 K | – | 5.9e-05 | 2.79e-05 | 3.94e-05 | 6.83e-05 | 7.68e-05 | 5.07e-05
288.15 K | 0.000132 | 7.59e-05 | 3.45e-05 | 4.95e-05 | 8.74e-05 | 9.58e-05 | 6.31e-05
293.15 K | 0.000158 | 9.67e-05 | 4.24e-05 | 6.17e-05 | 0.000111 | 0.000119 | 7.79e-05
298.15 K | 0.000189 | 0.000122 | 5.17e-05 | 7.64e-05 | 0.00014 | 0.000146 | 9.54e-05
303.15 K | 0.000224 | 0.000153 | 6.27e-05 | 9.39e-05 | 0.000175 | 0.000178 | 0.000116
308.15 K | 0.000265 | 0.000191 | 7.54e-05 | 0.000115 | 0.000216 | 0.000216 | 0.000141
313.15 K | 0.000311 | 0.000236 | 9.03e-05 | 0.000139 | 0.000267 | 0.00026 | 0.000169
318.15 K | 0.000363 | 0.00029 | 0.000107 | 0.000168 | 0.000326 | 0.000312 | 0.000202
323.15 K | 0.000422 | – | – | – | – | – | –
328.15 K | 0.000488 | – | – | – | – | – | –
333.15 K | 0.000562 | – | – | – | – | – | –
